According to patent US7910600B2, “Therapeutic kinase modulators” (Cylene Pharmaceuticals, Inc., priority 2007, dated 2011):

Tests used:
MDA-MB231 = assay: Cell proliferation assay (Alamar Blue), MDA-MB231; assay type: cell-based; conditions: Homo sapiens, MDA-MB-231; MDA-MB231 cell line
Description: (§1) A representative cell-proliferation assay protocol using Alamar Blue dye (stored at 4° C., use 20 ul per well) is described hereafter.
(§2) 96-Well Plate Setup and Compound Treatment
(§3) • a. Split and trypsinize cells. • b. Count cells using hemocytometer. • c. Plate 4,000-5,000 cells per well in 100 μl of medium and seed into a 96-well plate according to the following plate layout. Add cell culture medium only to wells B10 to B12. Wells B1 to B9 have cells but no compound added.
(§4) • d. Add 100 μl of 2× drug dilution to each well in a concentration shown in the plate layout above. At the same time, add 100 μl of media into the control wells (wells B10 to B12). Total volume is 200 μl/well. • e. Incubate four (4) days at 37° C., 5% CO2 in a humidified incubator. • f. Add 20 μl Alamar Blue reagent to each well. • g. Incubate for four (4) hours at 37° C., 5% CO2 in a humidified incubator. • h. Record fluorescence at an excitation wavelength of 544 nm and emission wavelength of 590 nm using a microplate reader.
(§5) In the assays, cells are cultured with a test compound for approximately four days, the dye is then added to the cells and fluorescence of […] dye is detected after approximately four hours. Different types of cells can be utilized in the assays (e.g., HCT-116 human colorectal carcinoma cells, PC-3 human prostatic cancer cells and MiaPaca human pancreatic carcinoma cells).

[1] = tested on: HCT-116 human colorectal carcinoma cells; assay: Cell proliferation assay (Alamar Blue), HCT-116; assay type: cell-based; conditions: HCT-116 cell line
Description: as §1, §2, §3, §4, §5

BxPC3 = assay: Cell proliferation assay (Alamar Blue), BxPC3; assay type: cell-based; conditions: Homo sapiens, BXPC-3; BxPC3 cell line; read-out: Bx-PC3
Description: as §1, §2, §3, §4, §5

MV-4-11 = assay: Cell proliferation assay (Alamar Blue), MV-4-11; assay type: cell-based; conditions: Homo sapiens, MV4-11; MV-4-11 cell line
Description: as §1, §2, §3, §4, §5

recombinant human CK2 = target: T1, recombinant human CK2 (Homo sapiens, UniProt P68400); assay: Cell-free CK2 assay; assay type: biochemical; conditions: for inhibition at 0.5 µM: read-out: CK2: % inh 500 nM
T1 construct: purchased Upstate
T1 sequence (P68400 whole entry): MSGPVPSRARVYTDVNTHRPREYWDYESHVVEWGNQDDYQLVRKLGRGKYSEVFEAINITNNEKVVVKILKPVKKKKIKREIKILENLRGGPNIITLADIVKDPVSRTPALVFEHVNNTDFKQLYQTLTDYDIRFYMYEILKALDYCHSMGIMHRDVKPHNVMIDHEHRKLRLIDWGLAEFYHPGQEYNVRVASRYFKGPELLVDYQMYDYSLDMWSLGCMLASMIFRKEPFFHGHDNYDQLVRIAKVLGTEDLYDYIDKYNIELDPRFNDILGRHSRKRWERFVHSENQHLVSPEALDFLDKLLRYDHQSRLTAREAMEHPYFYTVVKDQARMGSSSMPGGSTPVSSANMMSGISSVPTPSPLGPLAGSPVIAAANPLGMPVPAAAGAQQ
T1 sequence (P67870 whole entry partner): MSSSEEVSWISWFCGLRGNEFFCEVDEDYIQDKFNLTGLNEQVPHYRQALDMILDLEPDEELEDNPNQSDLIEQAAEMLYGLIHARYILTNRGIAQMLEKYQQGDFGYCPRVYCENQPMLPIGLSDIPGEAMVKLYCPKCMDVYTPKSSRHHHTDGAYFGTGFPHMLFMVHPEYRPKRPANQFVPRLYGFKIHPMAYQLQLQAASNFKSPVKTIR
Description: Modulatory activity of compounds described herein is assessed in vitro in cell-free CK2 assays. These assays are described hereafter.
Test compounds in aqueous solution are added at a volume of 10 microliters, to a reaction mixture comprising 10 microliters Assay Dilution Buffer (ADB; 20mM MOPS, pH 7.2, 25 mM beta-glycerolphosphate, 5 mM EGTA, 1 mM sodium orthovanadate and 1 mM dithiothreitol), 10 microliters of substrate peptide (RRRDDDSDDD (SEQ ID NO:4), dissolved in ADB at a concentration of 1 mM), 10 microliters of recombinant human CK2 (25 ng dissolved in ADB; Upstate). Reactions are initiated by the addition of 10 microliters of ATP Solution (90% 75 mM MgC12, 75 micromolar ATP dissolved in ADB; 10% [γ-^33P]ATP (stock 1 mCi/100 μl; 3000 Ci/mmol (Perkin Elmer) and maintained for 10 minutes at 30 degrees C. The reactions are quenched with 100 microliters of 0.75% phosphoric acid, then transferred to and filtered through a phosphocellulose filter plate (Millipore). After washing each well 5 times with 0.75% phosphoric acid, the plate is dried under vacuum for 5 min and, following the addition of 15 ul of scintillation fluid to each well, the residual radioactivity is measured using a Wallac […].

[2] = tested on: MiaPaca human pancreatic carcinoma cells; assay: Cell proliferation assay (Alamar Blue), MiaPaCa; assay type: cell-based; conditions: MIA PaCa-2, MiaPaCa cell line
Description: as §1, §2, §3, §4, §5

K562 = assay: Cell proliferation assay (Alamar Blue), K562; assay type: cell-based; conditions: Homo sapiens; K562 cell line
Description: as §1, §2, §3, §4, §5

[3] = tested on: PC-3 human prostatic cancer cells; assay: Cell proliferation assay (Alamar Blue), PC3; assay type: cell-based; conditions: PC3 cell line
Description: as §1, §2, §3, §4, §5

IC50 (MDA-MB231)	IC50 [1]	IC50 (BxPC3)	IC50 (MV-4-11)	IC50 (recombinant human CK2)	inhibition at 0.5 µM (recombinant human CK2)	IC50 [2]	IC50 (K562)	IC50 [3]	SMILES
> 10 µM	> 10 µM	> 10 µM	8.1 µM	0.013 µM	97%	> 10 µM	> 10 µM	–	O=C(O)c1ccc2c(c1)nc(-c1ccccc1)c1ccncc12 [5-phenylbenzo[c][2,6]naphthyridine-8-carboxylic acid]
–	> 10 µM	–	–	–	68%	> 10 µM	> 10 µM	> 10 µM	COc1cccc(F)c1-c1nc2cc(C(=O)O)ccc2c2cnccc12
–	> 10 µM	–	> 10 µM	–	57%	–	> 10 µM	–	CN1CCN(C(=O)c2ccc3c(c2)nc(-c2ccccc2)c2ccncc23)CC1
–	–	–	–	–	-5%	–	–	–	COC(=O)c1ccc2c(c1)nc(-c1c(C)noc1C)c1ccncc12
–	> 10 µM	–	–	0.045 µM	98%	> 10 µM	–	> 10 µM	N#Cc1cccc(-c2nc3cc(C(=O)O)ccc3c3cnccc23)c1
–	–	–	–	–	52%	–	–	–	Cc1noc(C)c1-c1nc2cc(C(=O)O)ccc2c2cnccc12
–	–	–	–	–	-35%	–	–	–	Fc1ccc2c(c1)nc(-c1cccc(OC(F)(F)F)c1)c1ccncc12
–	> 10 µM	–	–	–	30%	–	–	–	CC(=O)Nc1cccc(-c2nc3cc(C(=O)N4CCCN(C)CC4)ccc3c3cnccc23)c1
–	> 10 µM	–	–	–	23%	> 10 µM	–	> 10 µM	O=C(O)c1ccc2c(c1)nc(-c1ccccc1OC(F)(F)F)c1ccncc12
–	1 µM	–	2.7 µM	–	-15%	–	–	–	Cn1cc(-c2nc3cc(C(=O)NC4CC4)ccc3c3cnccc23)cn1
–	> 10 µM	–	> 10 µM	–	9%	> 10 µM	> 10 µM	> 10 µM	CN1CCCCC1CNC(=O)c1ccc2c(c1)nc(-c1cccc(N)c1)c1ccncc12 (centres unmarked)
–	> 10 µM	–	1.4 µM	–	27%	–	> 10 µM	–	NC(=O)c1ccc2c(c1)nc(-c1ccccc1)c1ccncc12
–	2 µM	–	–	–	-26%	–	–	–	COC(=O)c1ccc2c(c1)nc(-c1ccccc1)c1nc(SC)ncc12 [methyl 3-(methylthio)-5-phenylpyrimido[4,5-c]quinoline-8-carboxylate]
–	> 10 µM	–	–	–	-28%	–	–	–	Nc1cccc(-c2nc3cc(C(=O)NN4CCOCC4)ccc3c3cnccc23)c1
–	> 10 µM	–	–	–	40%	–	–	–	CC(=O)Nc1cccc(-c2nc3cc(C(=O)NCC4CCCCN4C)ccc3c3cnccc23)c1 (centres unmarked)
–	–	–	–	–	99%	–	–	–	O=C(O)c1ccc2c(c1)nc(-c1ccc(Cl)s1)c1ccncc12
–	–	–	–	–	-37%	–	–	–	Fc1ccc2c(c1)nc(-c1ccncc1)c1ccncc12
> 10 µM	> 10 µM	> 10 µM	> 10 µM	0.027 µM	97%	> 10 µM	–	–	Nc1cccc(-c2nc3cc(C(=O)O)ccc3c3cnccc23)c1
–	> 10 µM	–	–	–	56%	–	–	–	Nc1cccc(-c2nc3cc(C(=O)NCCN4CCCC4)ccc3c3cnccc23)c1
–	2.5 µM	–	> 10 µM	–	-49%	–	> 10 µM	–	COC(=O)c1ccc2c(c1)nc(-c1cnn(C)c1)c1ccncc12 [Methyl 5-(1-methyl-1H-pyrazol-4-yl)benzo[c][2,6]naphthyridine-8-carboxylate]
–	–	–	–	–	-51%	–	–	–	Fc1ccc2c(c1)nc(-c1ccccc1)c1ccncc12
–	> 10 µM	–	–	–	76%	> 10 µM	> 10 µM	> 10 µM	Cc1ccccc1-c1nc2cc(C(=O)O)ccc2c2cnccc12
–	> 10 µM	–	–	0.144 µM	89%	–	–	–	CC(=O)Nc1cccc(-c2nc3cc(C(=O)NCCN4CCCC4)ccc3c3cnccc23)c1

IC50 (MDA-MB231)	IC50 [1]	IC50 (BxPC3)	IC50 (MV-4-11)	IC50 (recombinant human CK2)	inhibition at 0.5 µM (recombinant human CK2)	IC50 [2]	IC50 (K562)	IC50 [3]	SMILES
–	> 10 µM	–	> 10 µM	–	-21%	–	> 10 µM	–	CCCNC(=O)c1ccc2c(c1)nc(-c1cnn(C)c1)c1ccncc12
–	> 10 µM	–	–	–	-17%	> 10 µM	> 10 µM	> 10 µM	Clc1cccc(-c2nc3ccccc3c3cnccc23)c1
–	> 10 µM	–	–	–	-15%	> 10 µM	> 10 µM	> 10 µM	Cc1ccccc1-c1nc2ccccc2c2cnccc12
–	–	–	–	–	4%	–	–	–	COC(=O)c1ccc2c(c1)nc(-c1cscc1C)c1ccncc12
–	> 10 µM	–	> 10 µM	0.106 µM	97%	> 10 µM	> 10 µM	4.1 µM	O=C(O)c1ccc2c(c1)nc(-c1ccccc1F)c1ccncc12
–	> 10 µM	–	–	–	-24%	–	–	–	Cc1cnc(CNC(=O)c2ccc3c(c2)nc(-c2cccc(N)c2)c2ccncc23)cn1
> 10 µM	> 10 µM	> 10 µM	> 10 µM	0.004 µM	98%	> 10 µM	> 10 µM	–	Cn1cc(-c2nc3cc(C(=O)O)ccc3c3cnccc23)cn1
–	> 10 µM	–	> 10 µM	–	-26%	–	> 10 µM	–	CCCNC(=O)c1ccc2c(c1)nc(-c1ccccc1)c1ccncc12
–	> 10 µM	–	> 10 µM	–	-9%	–	> 10 µM	–	O=C(NC1CC1)c1ccc2c(c1)nc(-c1ccccc1)c1ccncc12
–	> 10 µM	–	–	–	-21%	–	–	–	CN1CCCN(C(=O)c2ccc3c(c2)nc(-c2cccc(N)c2)c2ccncc23)CC1
–	> 10 µM	–	2.9 µM	–	7%	–	> 10 µM	–	Cn1cc(-c2nc3cc(C(N)=O)ccc3c3cnccc23)cn1
–	> 10 µM	–	> 10 µM	–	-13%	–	> 10 µM	–	CN(C)C(=O)c1ccc2c(c1)nc(-c1cnn(C)c1)c1ccncc12
–	> 10 µM	–	–	–	-5%	> 10 µM	> 10 µM	> 10 µM	Clc1ccc(-c2nc3ccccc3c3cnccc23)cc1
–	> 10 µM	–	> 10 µM	–	0%	–	> 10 µM	–	CN(C)C(=O)c1ccc2c(c1)nc(-c1ccccc1)c1ccncc12
–	> 10 µM	–	–	–	6%	–	–	–	CC(=O)Nc1cccc(-c2nc3cc(C(=O)N4CCN(C)CC4)ccc3c3cnccc23)c1
–	> 10 µM	–	–	–	19%	–	–	–	CC(=O)Nc1cccc(-c2nc3cc(C(=O)NN4CCOCC4)ccc3c3cnccc23)c1
–	–	–	–	–	87%	–	–	–	Cc1cscc1-c1nc2cc(C(=O)O)ccc2c2cnccc12
–	2.9 µM	–	> 10 µM	–	-34%	–	> 10 µM	–	COC(=O)c1ccc2c(c1)nc(-c1ccccc1)c1ccncc12 [Methyl 5-phenylbenzo[c][2,6]naphthyridine-8-carboxylate]
–	0.9 µM	–	–	–	11%	–	–	–	COC(=O)c1ccc2c(c1)nc(-c1cnn(C)c1)c1nc(S(C)(=O)=O)ncc12
–	> 10 µM	–	> 10 µM	–	-15%	–	> 10 µM	–	CN1CCCN(C(=O)c2ccc3c(c2)nc(-c2ccccc2)c2ccncc23)CC1
> 10 µM	> 10 µM	> 10 µM	> 10 µM	0.042 µM	93%	> 10 µM	> 10 µM	–	CC(=O)Nc1cccc(-c2nc3cc(C(=O)O)ccc3c3cnccc23)c1
–	> 10 µM	–	–	–	-6%	–	–	–	CC(=O)Nc1cccc(-c2nc3cc(C(=O)NCc4cnc(C)cn4)ccc3c3cnccc23)c1
